Tests used:
ES cells = assay: Toxic effects of inhibitors in ES cell monolayer differentiation cultures; assay type: cell-based, mouse; conditions: 4 μM
Source text: (§1) This is as described in detail in Ying et al., 2003b. Briefly, ES cells were washed to remove all traces of serum and then plated on gelatin-coated tissue culture plastic at a density of 1>10^4 cells/cm^2 in N2B27 serum-free medium. N2B27 consists of a 1:1 ratio of DM/F12 and Neurobasal media supplemental with 0.5% N2 (made in house as described in (Ying et al., 2003b)), 0.5% B27 (Gibco) and 2-mercaptoethanol. Media was changed every second day.
(§2) In some experiments, the culture medium was supplemented with 100 units/ml LIF and with 10% FCS. The MAPK inhibitor PD184352 (gift of P. Cohen, Univ Dundee) was used at a concentration of 4 μM. The gamma secretase inhibitor (Calbiochem cat. 565771) was used at a concentration of 4 μM.

NotchIC cells = assay: Monolayer differentiation of NotchIC ES cells, sox1-GFP by FACS; assay type: cell-based, mouse; conditions: 4 μM inhibitor, sox1-GFP positive cells by FACS
Source text: Intact cultures were stained for Oct4 on day 5 to visualise undifferentiated ES cells.
as §1, §2

SMILES | toxic effects over the time course of the experiments (ES cells) | induction of sox1 in NotchIC cells (NotchIC cells)
O=C(NOCC1CC1)c1ccc(F)c(F)c1Nc1ccc(I)cc1Cl [PD184352] | Neither of these inhibitors had any obvious toxic effects | able to block induction of sox1
Cc1c[nH]c(/C=C2\C(=O)Nc3ccccc32)c1CCC(=O)O [SU5402] |  | able to block induction of sox1
